Test results from the supplement of paper PMC10307832.

Assays:
Experiment in all cases: relative viability (nuclei count vs DMSO), 5 days (fraction); higher = more cells survive
[1] = test system: NCI-H1944
Outline: (§1)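 For relative viability, nuclei counts in treated wells were divided by those in vehicle wells. Lung cancer cell lines had been pin-tool dosed in 1536-well plates the day after seeding and cultured for 5 days, then fixed and stained in one step (final 0.05% Triton X-100, 1% formaldehyde, 1 ug/ml Hoechst) and imaged at 4×. Doses were one drug alone or a fixed anchor-drug dose plus five library-drug doses (not always all listed) in √10 steps, and values are duplicate-plate medians.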

[2] = test system: NCI-H1734
Outline: as §1

[3] = test system: SW 900
Outline: as §1

[4] = test system: HCC-78
Outline: as §1

[5] = test system: LCLC-97TM1
Outline: as §1

[6] = test system: BEN
Outline: as §1

[7] = test system: EMC-BAC-2
Outline: as §1

[8] = test system: NCI-H1792
Outline: as §1

[9] = test system: NCI-H2087
Outline: as §1

[10] = test system: COR-L 105
Outline: as §1

[11] = test system: LK-2
Outline: as §1

[12] = test system: NCI-H522
Outline: as §1

[13] = test system: RERF-LC-KJ
Outline: as §1

[14] = test system: NCI-H2126
Outline: as §1

[15] = test system: NCI-H358
Outline: as §1

[16] = test system: EPLC-272H
Outline: as §1

[17] = test system: EKVX
Outline: as §1

[18] = test system: NCI-H1650
Outline: as §1

[19] = test system: SK-MES-1
Outline: as §1

[20] = test system: NCI-H1563
Outline: as §1

[21] = test system: LOU-NH91
Outline: as §1

[22] = test system: LU99A
Outline: as §1

[23] = test system: SW 1573
Outline: as §1

[24] = test system: HCC-827
Outline: as §1

`CCCCCCCCCCCC1=C(O)C(=O)C=C(O)C1=O` [Embelin] + Nc1nc2[nH]cc(CCc3ccc(C(=O)N[C@@H](CCC(=O)O)C(=O)O)cc3)c2c(=O)[nH]1 [Pemetrexed] (partner 0.2 µM) was tested, and the relative viability ([1]; first compound 0.08 µM) was 0.545, the relative viability ([1]; first compound 0.8 µM) was 0.754 and the relative viability ([1]; first compound 2.53 µM) was 0.578. For the same compound, the relative viability ([1]; first compound 8 µM) was 0.643, the relative viability ([2]; first compound 0.08 µM) was 0.434 and the relative viability ([2]; first compound 0.8 µM) was 0.447. It also gave a relative viability ([2]; first compound 2.53 µM) of 0.414, a relative viability ([2]; first compound 8 µM) of 0.401 and a relative viability ([3]; first compound 0.08 µM) of 0.495. For the same compound, the relative viability ([3]; first compound 0.8 µM) was 0.527, the relative viability ([3]; first compound 2.53 µM) was 0.52 and the relative viability ([3]; first compound 8 µM) was 0.473. For the same compound, the relative viability ([4]; first compound 0.08 µM) was 0.924, the relative viability ([4]; first compound 0.8 µM) was 0.895 and the relative viability ([4]; first compound 2.53 µM) was 0.982. For the same compound, the relative viability ([4]; first compound 8 µM) was 0.949, the relative viability ([5]; first compound 0.08 µM) was 0.17 and the relative viability ([5]; first compound 0.8 µM) was 0.166. The relative viability ([5]; first compound 2.53 µM) was 0.163, the relative viability ([5]; first compound 8 µM) was 0.182 and the relative viability ([6]; first compound 0.08 µM) was 0.763. For the same compound, the relative viability ([6]; first compound 0.8 µM) was 0.823, the relative viability ([6]; first compound 2.53 µM) was 1.03 and the relative viability ([6]; first compound 8 µM) was 0.731. For the same compound, the relative viability ([7]; first compound 0.08 µM) was 0.472, the relative viability ([7]; first compound 0.8 µM) was 0.53 and the relative viability ([7]; first compound 2.53 µM) was 0.399. The relative viability ([7]; first compound 8 µM) was 0.49, the relative viability ([8]; first compound 0.08 µM) was 0.815 and the relative viability ([8]; first compound 0.8 µM) was 0.817. The relative viability ([8]; first compound 2.53 µM) was 1.06, the relative viability ([8]; first compound 8 µM) was 0.382 and the relative viability ([9]; first compound 0.08 µM) was 0.745. It also gave a relative viability ([9]; first compound 0.8 µM) of 0.517, a relative viability ([9]; first compound 2.53 µM) of 0.748 and a relative viability ([9]; first compound 8 µM) of 0.646. It also gave a relative viability ([10]; first compound 0.08 µM) of 1.15, a relative viability ([10]; first compound 0.8 µM) of 1.21 and a relative viability ([10]; first compound 2.53 µM) of 1. It also gave a relative viability ([10]; first compound 8 µM) of 1.08, a relative viability ([11]; first compound 0.08 µM) of 0.335 and a relative viability ([11]; first compound 0.8 µM) of 0.227. The relative viability ([11]; first compound 2.53 µM) was 0.385, the relative viability ([11]; first compound 8 µM) was 0.289 and the relative viability ([12]; first compound 0.08 µM) was 0.901. It also gave a relative viability ([12]; first compound 0.8 µM) of 1.06, a relative viability ([12]; first compound 2.53 µM) of 0.957 and a relative viability ([12]; first compound 8 µM) of 0.837. It also gave a relative viability ([13]; first compound 0.08 µM) of 0.502, a relative viability ([13]; first compound 0.8 µM) of 0.498 and a relative viability ([13]; first compound 2.53 µM) of 0.504. The relative viability ([13]; first compound 8 µM) was 0.474, the relative viability ([14]; first compound 0.08 µM) was 0.735 and the relative viability ([14]; first compound 0.8 µM) was 0.636. It also gave a relative viability ([14]; first compound 2.53 µM) of 0.654, a relative viability ([14]; first compound 8 µM) of 0.69 and a relative viability ([15]; first compound 0.08 µM) of 0.217. It also gave a relative viability ([15]; first compound 0.8 µM) of 0.193, a relative viability ([15]; first compound 2.53 µM) of 0.178 and a relative viability ([15]; first compound 8 µM) of 0.175. For the same compound, the relative viability ([16]; first compound 0.08 µM) was 0.361, the relative viability ([16]; first compound 0.8 µM) was 0.302 and the relative viability ([16]; first compound 2.53 µM) was 0.331. It also gave a relative viability ([16]; first compound 8 µM) of 0.247, a relative viability ([17]; first compound 0.08 µM) of 0.406 and a relative viability ([17]; first compound 0.8 µM) of 0.465. The relative viability ([17]; first compound 2.53 µM) was 0.368, the relative viability ([17]; first compound 8 µM) was 0.407 and the relative viability ([18]; first compound 0.08 µM) was 0.437. For the same compound, the relative viability ([18]; first compound 0.8 µM) was 0.369, the relative viability ([18]; first compound 2.53 µM) was 0.494 and the relative viability ([18]; first compound 8 µM) was 0.358. The relative viability ([19]; first compound 0.08 µM) was 1.01, the relative viability ([19]; first compound 0.8 µM) was 1.05 and the relative viability ([19]; first compound 2.53 µM) was 0.937. For the same compound, the relative viability ([19]; first compound 8 µM) was 0.824, the relative viability ([20]; first compound 0.08 µM) was 0.742 and the relative viability ([20]; first compound 0.8 µM) was 0.767. The relative viability ([20]; first compound 2.53 µM) was 0.693, the relative viability ([20]; first compound 8 µM) was 0.713 and the relative viability ([21]; first compound 0.08 µM) was 0.357. It also gave a relative viability ([21]; first compound 0.8 µM) of 0.385, a relative viability ([21]; first compound 2.53 µM) of 0.381 and a relative viability ([21]; first compound 8 µM) of 0.466. It also gave a relative viability ([22]; first compound 0.08 µM) of 0.182, a relative viability ([22]; first compound 0.8 µM) of 0.178 and a relative viability ([22]; first compound 2.53 µM) of 0.15. The relative viability ([22]; first compound 8 µM) was 0.192, the relative viability ([23]; first compound 0.08 µM) was 0.92 and the relative viability ([23]; first compound 0.8 µM) was 0.844. For the same compound, the relative viability ([23]; first compound 2.53 µM) was 0.99, the relative viability ([23]; first compound 8 µM) was 0.931 and the relative viability ([24]; first compound 0.08 µM) was 0.26. For the same compound, the relative viability ([24]; first compound 0.8 µM) was 0.284, the relative viability ([24]; first compound 2.53 µM) was 0.285 and the relative viability ([24]; first compound 8 µM) was 0.259.
